These results are taken from PubChem BioAssay AID256 (DTP/NCI, 2004).

For the test, the system named is CD2F1 mice, L1210 leukemia ip, survival T/C. The experiment in a line: NCI In Vivo Anticancer Drug Screen. Data for tumor model L1210 Leukemia (intraperitoneal) in CD2F1 (CDF1) mice. The note with it: higher = longer survival. As to the method: The antitumor activity of compounds was measured in mice bearing transplantable tumors. Survival or tumor size were measured and the results are expressed as the measurement made in the treated group (T) divided by the measurement made in the vehicle treated control group (C). The tumor model used in this assay is L1210 Leukemia (intraperitoneal) in CD2F1 (CDF1) mice

Setting [1] is: endpoint: mean survival time, dose: 100.0 mg/kg/injection, schedule: Q01DX001 (ip), vehicle: saline with Tween-80.
Setting [2] is: endpoint: mean survival time, dose: 200.0 mg/kg/injection, schedule: Q01DX001 (ip), vehicle: saline with Tween-80.
The mark [3] stands for this setting: endpoint: mean survival time, dose: 100.0 mg/kg/injection, schedule: Q04DX002 (ip), vehicle: saline with Tween-80.
Where [4] appears, read: endpoint: mean survival time, dose: 200.0 mg/kg/injection, schedule: Q04DX002 (ip), vehicle: saline with Tween-80.
The mark [5] stands for this setting: endpoint: mean survival time, dose: 100.0 mg/kg/injection, schedule: Q04DX003 (ip), vehicle: saline with Tween-80.
The mark [6] stands for this setting: endpoint: mean survival time, dose: 200.0 mg/kg/injection, schedule: Q04DX003 (ip), vehicle: saline with Tween-80.
Setting [7] is: endpoint: mean survival time, dose: 400.0 mg/kg/injection, schedule: Q04DX003 (ip), vehicle: saline with Tween-80.
[8] abbreviates: endpoint: mean survival time, dose: 100.0 mg/kg/injection, schedule: Q01DX009 (ip), vehicle: saline with Tween-80.
The mark [9] stands for this setting: endpoint: mean survival time, dose: 200.0 mg/kg/injection, schedule: Q01DX009 (ip), vehicle: saline with Tween-80.
Setting [10] is: endpoint: mean survival time, dose: 400.0 mg/kg/injection, schedule: Q01DX009 (ip), vehicle: saline with Tween-80.

Values joined by “and” are separate entries in the source; they are usually repeats but may differ in a detail not shown here. Equal values may be shown once. Inconclusive results and toxic doses are left out.

As to `NC(=S)N/N=C/c1nccc2ccccc12`, the T/C (endpoint: mean survival time, dose: 6.25 mg/kg/injection, schedule: Q01DX010 (oral), vehicle: saline) is 97 % of control; the T/C (endpoint: mean survival time, dose: 15.0 mg/kg/injection, schedule: Q01DX006 (iv), vehicle: saline) was 100 % of control; the T/C (endpoint: mean survival time, dose: 25.0 mg/kg/injection, schedule: Q01DX009 (sc), vehicle: saline) is 97 % of control; the T/C (endpoint: mean survival time, dose: 30.0 mg/kg/injection, schedule: Q01DX006 (iv), vehicle: saline) is 100 % of control; the T/C (endpoint: mean survival time, dose: 50.0 mg/kg/injection, schedule: Q01DX001 (sc), vehicle: saline) is 98 % of control; the T/C (endpoint: mean survival time, dose: 50.0 mg/kg/injection, schedule: Q01DX009 (sc), vehicle: saline) is 103 % of control. In addition, the T/C is 110 % of control (endpoint: mean survival time, dose: 75.0 mg/kg/injection, schedule: Q01DX009 (ip), vehicle: saline with Tween-80); 86 % of control (endpoint: mean survival time, dose: 168.0 mg/kg/injection, schedule: Q01DX Z (ip), vehicle: saline); 100 % of control (endpoint: mean survival time, dose: 200.0 mg/kg/injection, schedule: Q01DX001 (sc), vehicle: saline); 110 % of control (endpoint: mean survival time, dose: 360.0 mg/kg/injection, schedule: Q01DX001 (ip), vehicle: saline).

Turning to `C/C=C1/C[C@@H](C)[C@@](C)(O)C(=O)OCC2=CC[N+]3([O-])CC[C@@H](OC1=O)[C@@H]23` (stereo not given in full), the T/C under setting [1] is 103 % of control and the T/C under setting [2] was 97 % of control.

As to `CN1CCN(C(=O)NCCCl)CC1`, the T/C is 107 % of control (endpoint: mean survival time, dose: 5.0 mg/kg/injection, schedule: Q01DX009 (ip), vehicle: saline); 93 % of control (endpoint: mean survival time, dose: 5.0 mg/kg/injection, schedule: Q04DX003 (ip), vehicle: saline); 94 % of control (endpoint: mean survival time, dose: 10.0 mg/kg/injection, schedule: Q01DX009 (ip), vehicle: saline); 92 % of control (endpoint: mean survival time, dose: 10.0 mg/kg/injection, schedule: Q04DX003 (ip), vehicle: saline); 92 % of control (endpoint: mean survival time, dose: 20.0 mg/kg/injection, schedule: Q04DX003 (ip), vehicle: saline).

On to `Cc1ccc(OC(=O)Nc2cc([N+](=O)[O-])ccc2[N+](=O)[O-])cc1`, for which the T/C is 100 % of control under setting [3]; 100 % of control under setting [4]; 92 % of control (endpoint: mean survival time, dose: 400.0 mg/kg/injection, schedule: Q04DX002 (ip), vehicle: saline with Tween-80).

On to `O=C(Cc1cccc2ccccc12)N/N=C/c1ccc2c(c1)CCC2`, for which the T/C runs as follows: under setting [5], 89 % of control; under setting [6], 95 % of control; under setting [7], 95 % of control.

For the compound `COc1c(NC(=O)Nc2cccc(Cl)c2)cccc1[N+](=O)[O-]`, the T/C reads like this: under setting [3], 92 % of control; under setting [4], 88 % of control.

Regarding `O=C1c2ccccc2C(=O)c2c(O)c(N3CCC(C(=O)O)CC3)cc(O)c21`, the T/C reads like this: (endpoint: mean survival time, dose: 12.5 mg/kg/injection, schedule: Q01DX005 (ip), vehicle: other) 106 % of control; (endpoint: mean survival time, dose: 25.0 mg/kg/injection, schedule: Q01DX005 (ip), vehicle: other) 104 % of control; (endpoint: mean survival time, dose: 50.0 mg/kg/injection, schedule: Q01DX005 (ip), vehicle: other) 106 % of control; (endpoint: mean survival time, dose: 100.0 mg/kg/injection, schedule: Q01DX005 (ip), vehicle: other) 96 % of control; (endpoint: mean survival time, dose: 200.0 mg/kg/injection, schedule: Q01DX005 (ip), vehicle: other) 98 % of control.

Take `O=C(/C=C/c1ccccc1)NC(=S)NCc1ccccc1`: the T/C by setting is: under setting [1], 91 % of control; under setting [8], 97 % of control and 100 % of control; under setting [3], 89 % of control and 94 % of control and 98 % of control; under setting [2], 88 % of control; under setting [9], 94 % of control and 104 % of control; (endpoint: mean survival time, dose: 400.0 mg/kg/injection, schedule: Q01DX001 (ip), vehicle: saline with Tween-80) 91 % of control. In addition, under setting [10], the T/C is 101 % of control and 105 % of control.

On to `NC(Cc1ccc(N(CCCl)Cc2ccccc2)cc1)C(=O)O` (stereo not given), for which the T/C was 103 % of control and 107 % of control (endpoint: mean survival time, dose: 3.12 mg/kg/injection, schedule: Q01DX009 (ip), vehicle: distilled water + Tween-80); 106 % of control (endpoint: mean survival time, dose: 3.13 mg/kg/injection, schedule: Q01DX009 (ip), vehicle: distilled water + Tween-80).

On to `CN(C)c1ccc(CN2CCCN(Cc3ccc(N(C)C)cc3)C2c2ccncc2)cc1`, for which the T/C by setting is: under setting [8], 94 % of control; under setting [5], 104 % of control; under setting [9], 95 % of control; under setting [6], 103 % of control; under setting [10], 95 % of control; under setting [7], 103 % of control.

As to `CCN(c1ccccc1)S(=O)(=O)CS(=O)(=O)N(CC)c1ccccc1`, the T/C was 104 % of control (endpoint: mean survival time, dose: 100.0 mg/kg/injection, schedule: Q01DX001 (ip), vehicle: Klucel (hydroxypropylcellulose) (HPC)); 96 % of control (endpoint: mean survival time, dose: 200.0 mg/kg/injection, schedule: Q01DX001 (ip), vehicle: Klucel (hydroxypropylcellulose) (HPC)); 93 % of control (endpoint: mean survival time, dose: 400.0 mg/kg/injection, schedule: Q01DX001 (ip), vehicle: Klucel (hydroxypropylcellulose) (HPC)).

Take `OCC1OC(n2ccn(C3OC(CO)C(O)C3O)c2=S)C(O)C1O` (stereo not given): the T/C runs as follows: (endpoint: mean survival time, dose: 12.5 mg/kg/injection, schedule: Q01DX005 (ip), vehicle: water) 98 % of control; (endpoint: mean survival time, dose: 25.0 mg/kg/injection, schedule: Q01DX005 (ip), vehicle: water) 106 % of control; (endpoint: mean survival time, dose: 50.0 mg/kg/injection, schedule: Q01DX005 (ip), vehicle: water) 96 % of control; (endpoint: mean survival time, dose: 100.0 mg/kg/injection, schedule: Q01DX005 (ip), vehicle: water) 98 % of control; (endpoint: mean survival time, dose: 200.0 mg/kg/injection, schedule: Q01DX005 (ip), vehicle: water) 102 % of control.

As to `Cc1ccc(C(=O)C[n+]2cccc3ccccc32)c(C)c1`, the T/C runs as follows: (endpoint: mean survival time, dose: 6.25 mg/kg/injection, schedule: Q01DX009 (ip), vehicle: saline with Tween-80) 101 % of control; (endpoint: mean survival time, dose: 12.5 mg/kg/injection, schedule: Q01DX009 (ip), vehicle: saline with Tween-80) 94 % of control; (endpoint: mean survival time, dose: 25.0 mg/kg/injection, schedule: Q01DX009 (ip), vehicle: saline with Tween-80) 95 % of control.

Take `NC1CCCCC1N.O=S(=O)([O-])CCCN1CCOCC1.O=S(=O)([O-])CCCN1CCOCC1.[Pt+4]`: the T/C is, setting by setting: (endpoint: median survival time, dose: 3.12 mg/kg/injection, schedule: Q04DX003 (ip), vehicle: saline with Tween-80) 361 % of control; (endpoint: median survival time, dose: 6.25 mg/kg/injection, schedule: Q04DX003 (ip), vehicle: saline with Tween-80) 174 % of control and 361 % of control; (endpoint: median survival time, dose: 12.5 mg/kg/injection, schedule: Q04DX003 (ip), vehicle: saline with Tween-80) 195 % of control and 196 % of control; (endpoint: median survival time, dose: 25.0 mg/kg/injection, schedule: Q04DX003 (ip), vehicle: saline with Tween-80) 341 % of control and 361 % of control; (endpoint: median survival time, dose: 50.0 mg/kg/injection, schedule: Q04DX003 (ip), vehicle: saline with Tween-80) 228 % of control and 365 % of control.

Take `O=C(Nc1ccc(C(=O)O)cc1)OCc1ccccc1`: the T/C reads like this: under setting [5], 100 % of control; under setting [6], 101 % of control; under setting [7], 91 % of control.

With `CCCCOC(=S)S.[Zn+2]`, the T/C by setting is: under setting [5], 94 % of control; under setting [6], 108 % of control; under setting [7], 89 % of control.

For the compound `O=C1CC23CCCN2CCc2cc4c(cc2C3=C1O)OCO4` (stereo not given), the T/C was 102 % of control (endpoint: mean survival time, dose: 1.56 mg/kg/injection, schedule: Q01DX009 (ip), vehicle: Klucel (hydroxypropylcellulose) (HPC)); 101 % of control (endpoint: mean survival time, dose: 3.13 mg/kg/injection, schedule: Q01DX009 (ip), vehicle: Klucel (hydroxypropylcellulose) (HPC)); 104 % of control (endpoint: mean survival time, dose: 6.25 mg/kg/injection, schedule: Q01DX009 (ip), vehicle: Klucel (hydroxypropylcellulose) (HPC)); 102 % of control (endpoint: mean survival time, dose: 12.5 mg/kg/injection, schedule: Q01DX009 (ip), vehicle: Klucel (hydroxypropylcellulose) (HPC)); 95 % of control (endpoint: mean survival time, dose: 25.0 mg/kg/injection, schedule: Q01DX009 (ip), vehicle: Klucel (hydroxypropylcellulose) (HPC)).

`COC1OC(COC(C)=O)C(OC2OC(COC(C)=O)C(OC(C)=O)C(OC(C)=O)C2OC(C)=O)C(OC(C)=O)C1OC(C)=O` (stereo not given): the T/C was 98 % of control under setting [8], 104 % of control under setting [9] and 106 % of control under setting [10].
